Drawing on patent US10906894B2, “Compounds containing benzo[d][1,3]oxathiole, benzo[d][1,3]oxathiole 3-oxide or benzo[d][1,3]oxathiole 3,3-dioxide and methods/uses thereof as agonists of g protein-coupled receptor 119” (PRAMANA PHARMACEUTICALS INC., priority 2016, dated 2021), this text covers Emax and EC50 for 15 compounds.

Read-outs that look alike come from different tables or passages of the source. Some results are limits rather than exact numbers.

One may read the EC50 as the concentration needed to bring the measured effect to its halfway point. Low values mean a more potent agent, high ones a less potent agent.

The target in this assay is T1, GPR119 (Homo sapiens, UniProt Q8TDV5).
T1 sequence (Q8TDV5 1-335): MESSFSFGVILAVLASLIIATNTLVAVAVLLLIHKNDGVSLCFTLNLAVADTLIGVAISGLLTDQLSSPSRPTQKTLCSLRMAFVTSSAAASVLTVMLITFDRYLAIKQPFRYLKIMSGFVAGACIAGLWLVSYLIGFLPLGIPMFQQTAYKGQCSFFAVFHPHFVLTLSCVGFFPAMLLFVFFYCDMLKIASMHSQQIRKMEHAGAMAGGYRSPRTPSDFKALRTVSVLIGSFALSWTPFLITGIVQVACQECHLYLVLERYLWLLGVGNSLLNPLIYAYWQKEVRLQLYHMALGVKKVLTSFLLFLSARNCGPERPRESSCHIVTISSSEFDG
As to the kind of experiment: LANCE Ultra cAMP assay: stimulation of GPR119-mediated cAMP production in CHO cells stably expressing human GPR119 receptor. The assay is classed as cell-based. The note with it: for Emax: CHO. As for the experimental part: The potency of GPR119 receptor agonists was assessed by measuring the stimulation of GPR119-mediated cAMP production with LANCE Ultra cAMP assay (Perkin Elmer, TRF0264) in CHO cells stably expressing human GPR119 receptor (Chantest, cat. #A633). CHO-GPR119 cells were cultured in DMEM/F12 medium supplemented with 10% FBS and 1% NEAA at 37° C., 5% CO2, aliquoted and frozen in liquid nitrogen.
For assay, cells were thawed in a water bath at 37° C., washed in Hank's Balanced Salt Solution (HBSS) and resuspended in Stimulation Buffer 1 (SB1) for 30 min: 5 mM HEPES, pH 7.2-7.4, 0.1% BSA in HBSS. […] The ULight-anti-cAMP antibody (Perkin Elmer, TRF0264) was added to the cell suspension making Mix [Cell suspension/4× ULight-anti-cAMP antibodies]. […] The assay plate was centrifuged 200 g, 5 sec.
Serial dilution (100×) of tested compounds were prepared in DMSO in the range of from 30 nM to 1 mM with half-log step in 384-well plates (Greiner, 781280) using Biomek 2000. 10 test concentrations in two repeats were prepared for each CRC. […] The assay plate was incubated 30 minutes at room temperature on a shaker, 250 rpm to allow GPR119 receptor stimulation. The cAMP level was determined according to the standard kit supplier protocol (PerkinElmer, cat. #TRF0264).
(§1) The stock solution of the Eu-cAMP tracer (Perkin Elmer, TRF0264) was diluted 1:100 in cAMP Detection Buffer (Perkin Elmer, TRF0264), making 2× working concentration and added to the assay plate, 10 μL per well. Assay plate was centrifuged 180 g, 1 sec. Then the assay plate was incubated for 60′ at room temperature on shaker, 250 rpm to allow cAMP detection. The TR-FRET signal was measured at Ex-340 nm/Em-615 and Ex-340 nm/Em-665 nm on the reader Tecan M1000. 0% of cAMP stimulation corresponds to the cells with DMSO only, 100% of cAMP stimulation corresponds to the cells with 10 uM Forskolin. The EC50 value defined as the concentration of the drug that gives half-maximal response, were calculated using GraphPad Prizm 5.0 software with forskolin was used as references at each test. Entries 1-17 in Table A-2 show the biological activity of certain representative compounds using the protocol as described above.
For assay, cells were thawed in a water bath at 37° C., washed in Hank's Balanced Salt Solution (HBSS) and resuspended in Stimulation Buffer 1 (SB1) for 30 min: 5 mM HEPES, pH 7.2-7.4, 0.1% BSA in HBSS. […] The ULight-anti-cAMP antibody (Perkin Elmer, TRF0264) was added to the cell suspension, making Mix [Cell suspension/4× ULight-anti-cAMP antibodies]. […] The assay plate was centrifuged 200 g, 5 sec.
as §1, with “1-14” for “1-17”, “B-2” for “A-2”

Where [1] appears, read: Table A-2 entries 18-25, modified protocol, 500 cells/well, read-out: % cAMP Max. relative to forscolin.
The mark [2] stands for this setting: Table A-2 entries 18-25, modified protocol, 500 cells/well.
Setting [3] is: Table A-2 entries 1-17, protocol as described, 100% = 10 uM Forskolin, read-out: % cAMP Max. relative to forscolin.
The mark [4] stands for this setting: Table A-2 entries 1-17, protocol as described (800 000 cells/mL, 5 uL/well), CHO-GPR119 cells.
[5] abbreviates: Table B-2 entries 1-14, protocol as described (800 000 cells/mL, 5 uL/well), CHO-GPR119 cells.
Setting [6] is: Table B-2 entries 15-39, modified protocol, 500 cells/well, read-out: % cAMP Max.
The mark [7] stands for this setting: Table B-2 entries 15-39, modified protocol, 500 cells/well.

`CCc1cnc(N2CCC[C@@H]2COc2ccc(-c3ccc4c(c3)OCS4(=O)=O)cc2F)nc1` [Example A-71]: the Emax under setting [1] was found to be 51%. Further, the EC50 under setting [2] turned out to be 1690 nM.
`O=S1(=O)COc2cc(-c3ccc(OCC4CCN(c5ncncn5)CC4)c(F)c3)ccc21` [A-42, 6-(4-((1-(1,3,5-Triazin-2-yl)piperidin-4-yl)methoxy)-3-fluorophenyl)-2H-benzo[d][1,3]oxathiole 3,3-dioxide]: the Emax under setting [3] turned out to be 75%. The compound also returned an EC50 under setting [4] of 102 nM.
As for `COc1cnc(N2CCC(COc3ccc(-c4ccc5c(c4)OC[S+]5[O-])cc3F)CC2)nc1` (stereo not shown) [Example B-24, 6-(3-Fluoro-4-((1-(5-methoxypyrimidin-2-yl)piperidin-4-yl)methoxy)phenyl)-2H-benzo[d][1,3]oxathiole 3-oxide], the EC50 under setting [5] came to 2.3 nM.
As to `CCc1cnc(N2CCC(COc3cnc(-c4ccc5c(c4)OCS5(=O)=O)nc3)CC2)nc1` [Example A-76, 6-(5-((1-(5-Ethylpyrimidin-2-yl)piperidin-4-yl)methoxy)pyrimidin-2-yl)-2H-benzo[d][1,3]oxathiole 3,3-dioxide], the Emax under setting [1] is 87%. The compound also registered a half-maximal effective concentration (EC50) under setting [2] of 8.2 nM.
`CCc1cnc(N2CCC(COc3ccc(-c4ccc5c(c4)OC[S@+]5[O-])cc3F)CC2)nc1` [Example B-52]: under setting [6], the Emax was 73%. The EC50 under setting [7] came to 19.5 nM.
As to `O=S1(=O)COc2cc(-c3ccc(OCC4CN(c5ncc(Cl)cn5)C4)c(F)c3)ccc21` [A-48, 6-(4-((1-(5-Chloropyrimidin-2-yl)azetidin-3-yl)methoxy)-3-fluorophenyl)-2H-benzo[d][1,3]oxathiole 3,3-dioxide], under setting [3], the Emax came out at 80%. Under setting [4], this compound yielded an EC50 of 67 nM.
Take `CCc1cnc(N2CCC[C@H]2COc2ccc(-c3ccc4c(c3)OCS4(=O)=O)cc2F)nc1` [Example A-80]: the Emax under setting [1] was determined as 25%. Under setting [2], this compound registered a concentration for a half-maximal effect (EC50) of 1310 nM.
Regarding `NC(=O)N1CCC(COc2ccc(-c3ccc4c(c3)OCS4(=O)=O)cc2F)CC1` [A-20], the Emax under setting [3] is 70%. In addition, the EC50 under setting [4] is no less than 10000 nM.
Under setting [5], `CCc1ccnc(N2CCC(COc3ccc(-c4ccc5c(c4)OCS5)cc3F)CC2)n1` [Example B-26] gave an EC50 greater than 500 nM.
Same read-out and setting: under `CCOc1cnc(N2CCC(COc3ccc(-c4ccc5c(c4)OC[S+]5[O-])cc3F)CC2)nc1` (stereo not shown) [Example B-27, 6-(4-((1-(5-Ethoxypyrimidin-2-yl)piperidin-4-yl)methoxy)-3-fluorophenyl)-2H-benzo[d][1,3]oxathiole 3-oxide] stands 4.7 nM.
For the compound `COc1cnc(N2CCC(COc3ccc(-c4ccc5c(c4)OCS5(=O)=O)cc3F)CC2)nc1` [Example A-67, 6-(3-Fluoro-4-(1-(5-methoxypyrimidin-2-yl)piperidin-4-yl)methoxy)phenyl-2H-benzo[d][1,3]oxathiole 3,3-dioxide], the Emax under setting [1] came out at 72%. For the same compound, the response under setting [2] was half-maximal at 21.4 nM (EC50).
With `O=S1(=O)COc2cc(-c3ccc(N4CCN(c5ncc(Cl)cn5)CC4)c(F)c3)ccc21` [Example A-65, 6-(4-(5-Chloropyrimidin-2-yl)piperazin-1-yl)-3-fluorophenyl-2H-benzo[d][1,3]oxathiole 3,3-dioxide], under setting [3], the Emax amounted to 84%. Under setting [4], this compound yielded an EC50 of 112 nM.
As for `CC(C)c1cnc(N2CCC(COc3ccc(-c4ccc5c(c4)OC[S@+]5[O-])cc3F)CC2)nc1` [Example B-53, (R)-6-(3-fluoro-4-((1-(5-isopropylpyrimidin-2-yl)piperidin-4-yl)methoxy)phenyl)-2H-benzo[d][1,3]oxathiole 3-oxide], under setting [6], the Emax was found to be 74%. A half-maximal response under setting [7] (EC50) required 41 nM.
Consider `CCc1cnc(N2CC[C@@H](COc3ccc(-c4ccc5c(c4)OCS5)cc3F)C2)nc1` [Example B-69], for which the 50% effective concentration (EC50) under setting [7] is greater than 10000 nM.
`[O-][S@+]1COc2cc(-c3ccc(OCC4CCN(c5ncc(Cl)cn5)CC4)c(F)c3)ccc21` [Example B-32, (S)-6-(4-((1-(5-chloropyrimidin-2-yl)piperidin-4-yl)methoxy)-3-fluorophenyl)-2H-benzo[d][1,3]oxathiole 3-oxide] yielded an EC50 under setting [5] of 1.2 nM. In other words, the single-digit nanomolar range.
